Results taken from patent US20080132536A1, “PYRAZOLO [3,4-B] PYRIDINE COMPOUNDS, AND THEIR USE AS PDE4 INHIBITORS” (Glaxo Group Limited, priority 2003, published 2008).

Molecular target: T1, PDE4B (human recombinant) (Homo sapiens, UniProt Q07343)
T1 construct: made in house
Assay: PDE4B inhibition, radioactive SPA and/or IMAP fluorescence polarisation (FP) assay
Type: biochemical
Conditions: comparators: Examples 6, 7, 29, 26, 64, 126, 124, 170, 177
Excerpt: Human recombinant PDE4B, in particular the 2B splice variant thereof (HSPDE4B2B), is disclosed in WO 94/20079 and also M. M. McLaughlin et al., “A low Km, rolipram-sensitive, cAMP-specific phosphodiesterase from human brain: cloning and expression of cDNA, biochemical characterisation of recombinant protein, and tissue distribution of mRNA”, J. Biol. Chem., 1993, 268, 6470-6476. For example, in Example 1 of WO 94/20079, human recombinant PDE4B is described as being expressed in the PDE-deficient yeast Saccharomyces cerevisiae strain GL62, e.g. after induction by addition of 150 uM CuSO4, and 100,000×g supernatant fractions of yeast cell lysates are described for use in the harvesting of PDE4B enzyme.
The ability of compounds to inhibit catalytic activity at PDE4B or 4D (human recombinant), PDE3 (from bovine aorta), PDE5 (human recombinant) or PDE6 (from bovine retina) can optionally be determined by Scintillation Proximity Assay (SPA) in 96-well format.
Test compounds (as a solution in DMSO, preferably about 2 microlitre (ul) volume of DMSO solution) are preincubated at ambient temperature (room temperature, e.g. 19-23° C.) in Wallac Isoplates (code 1450-514) with PDE enzyme in 50 mM Tris-HCl buffer pH 7.5, 8.3 mM MgCl2, 1.7 mM EGTA, 0.05% (w/v) bovine serum albumin for 10-30 minutes (usually 30 minutes). The enzyme concentration is adjusted so that no more than 20% hydrolysis of the substrate defined below occurs in control wells without compound, during the incubation. For the PDE3, PDE4B and PDE4D assays, [5′,8-3H]Adenosine 3′,5′-cyclic phosphate (Amersham Pharmacia Biotech, code TRK.559; or Amersham Biosciences UK Ltd, Pollards Wood, Chalfont St Giles, Buckinghamshire HP8 4SP, UK) is added to give 0.05 uCi per well and about 10 nM final concentration. For the PDE5 and PDE6 assays, [8-^3H]Guanosine 3′,5′-cyclic phosphate (Amersham Pharmacia Biotech, code TRK.392) is added to give 0.05 uCi per well and about 36 nM final concentration. Plates containing assay mixture, preferably approx. 100 ul volume of assay mixture, are mixed on an orbital shaker for 5 minutes and incubated at ambient temperature for 1 hour. Phosphodiesterase SPA beads (Amersham Pharmacia Biotech, code RPNQ 0150) are added (about 1 mg per well) to terminate the assay. Plates are sealed and shaken and allowed to stand at ambient temperature for 35 minutes to 1 hour (preferably 35 minutes) to allow the beads to settle. Bound radioactive product is measured using a WALLAC TRILUX 1450 Microbeta scintillation counter. For inhibition curves, 10 concentrations (1.5 nM-30 uM) of each compound are assayed. Curves are analysed using ActivityBase and XLfit (ID Business Solutions Limited, 2 Ocean Court, Surrey Research Park, Guildford, Surrey GU2 7QB, United Kingdom) Results are expressed as pIC50 values.
The ability of compounds to inhibit catalytic activity at PDE4B (human recombinant) or PDE4D (human recombinant) can optionally be determined by IMAP Fluorescence Polarisation (FP) assay (IMAP Explorer kit, available from Molecular Devices Corporation, Sunnydale, Calif., USA; Molecular Devices code: R8062) in 384-well format.
The IMAP FP assay is able to measure PDE activity in an homogenous, non-radioactive assay format. The FP assay uses the ability of immobilised trivalent metal cations, coated onto nanoparticles (tiny beads), to bind the phosphate group of Fl-AMP that is produced on the hydrolysis of fluorescein-labelled (Fl) cyclic adenosine mono-phosphate (Fl-cAMP) to the non-cyclic Fl-AMP form. […] Binding of Fl-AMP product to the beads (coated with the immobilised trivalent cations) slows the rotation of the bound Fl-AMP and leads to an increase in the fluorescence polarisation ratio of parallel to perpendicular light. Inhibition of the PDE reduces/inhibits this signal increase. […]

T1 sequence (Q07343 1-564 isoform Q07343-2): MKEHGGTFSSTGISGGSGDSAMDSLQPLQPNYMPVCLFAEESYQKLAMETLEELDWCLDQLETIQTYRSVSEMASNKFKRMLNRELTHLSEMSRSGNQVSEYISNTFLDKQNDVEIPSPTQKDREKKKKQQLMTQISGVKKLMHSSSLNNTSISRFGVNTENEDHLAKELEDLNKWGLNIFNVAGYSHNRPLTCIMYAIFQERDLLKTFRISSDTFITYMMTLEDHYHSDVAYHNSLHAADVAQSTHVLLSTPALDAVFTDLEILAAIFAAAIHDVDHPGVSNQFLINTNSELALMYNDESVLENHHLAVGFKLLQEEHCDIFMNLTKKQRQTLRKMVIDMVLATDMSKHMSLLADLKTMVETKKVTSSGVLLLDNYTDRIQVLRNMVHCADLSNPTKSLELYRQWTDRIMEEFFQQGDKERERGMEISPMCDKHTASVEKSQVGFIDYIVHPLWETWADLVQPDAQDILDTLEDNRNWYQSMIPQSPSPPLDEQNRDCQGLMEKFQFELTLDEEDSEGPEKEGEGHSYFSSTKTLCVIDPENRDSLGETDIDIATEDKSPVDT

| SMILES | PDE4B inhibitory activity compared with the comparable Example of opposite stereochemistry at the CR4R5 (benzylic) carbon atom |
| --- | --- |
| CCn1ncc2c(NC3CCCCC3)c(C(=O)N[C@H](COC)c3ccccc3)cnc21 [Example 129, 4-(cyclohexylamino)-1-ethyl-N-[(1S)-2-(methyloxy)-1-phenylethyl]-1H-pyrazolo[3,4-b]pyridine-5-carboxamide] | greater PDE4B inhibitory activity |
| CCn1ncc2c(NC3CCC(=O)CC3)c(C(=O)N[C@H](C)c3ccc([N+](=O)[O-])cc3)cnc21 [Example 178, 1-ethyl-N-[(1R)-1-(4-nitrophenyl)ethyl]-4-[(4-oxocyclohexyl)amino]-1H-pyrazolo[3,4-b]pyridine-5-carboxamide] | greater PDE4B inhibitory activity |
| CC[C@@H](NC(=O)c1cnc2c(cnn2CC)c1NC1CCOCC1)c1ccccc1 [Example 1, 1-ethyl-N-[(1R)-1-phenylpropyl]-4-(tetrahydro-2H-pyran-4-ylamino)-1H-pyrazolo[3,4-b]pyridine-5-carboxamide] | greater PDE4B inhibitory activity |

Same assay, conditions: one reading or average of several (ca. 2-6) readings; SPA and/or FP assay; range given for a group of Examples; read-out: PDE4B pIC50 (±about 0.5) (converted)

| SMILES | IC50 [nM] |
| --- | --- |
| CCn1ncc2c(NC3CCCCC3)c(C(=O)N[C@H](C)c3ccc(C)cc3)cnc21 [Example 139, 4-(cyclohexylamino)-1-ethyl-N-[(1R)-1-(4-methylphenyl)ethyl]-1H-pyrazolo[3,4-b]pyridine-5-carboxamide] | 0.1 to 2 |
| CCn1ncc2c(NC3CCOCC3)c(C(=O)N[C@@H](COC)c3ccccc3)cnc21 [Example 29, 1-ethyl-N-[(1R)-2-(methyloxy)-1-phenylethyl]-4-(tetrahydro-2H-pyran-4-ylamino)-1H-pyrazolo[3,4-b]pyridine-5-carboxamide] | 31.6 to 70.8 |
| CCC(NC(=O)c1cnc2c(cnn2CC)c1NC1CCOCC1)c1ccc(C)cc1C (stereo not drawn) [Example 98, N-[1-(2,4-dimethylphenyl)propyl]-1-ethyl-4-(tetrahydro-2H-pyran-4-ylamino)-1H-pyrazolo[3,4-b]pyridine-5-carboxamide] | 0.1 to 2 |
| CCC(NC(=O)c1cnc2c(cnn2CC)c1NC1CCCC(O)C1)c1ccc(Cl)cc1 [Example 282, N-[1-(4-chlorophenyl)propyl]-1-ethyl-4-{[(1S,3R)-and/or (1R,3S)-3-hydroxycyclohexyl]amino}-1H-pyrazolo[3,4-b]pyridine-5-carboxamide] | 0.1 to 2 |
| CCn1ncc2c(N[C@H]3CC[C@H](C(N)=O)CC3)c(C(=O)N[C@H](C)c3ccc(C)cc3)cnc21 [Example 357, 4-{[trans-4-(aminocarbonyl)cyclohexyl]amino}-1-ethyl-N-[(1R)-1-(4-methylphenyl)ethyl]-1H-pyrazolo[3,4-b]pyridine-5-carboxamide] | 39.8 to 158 |
| CCn1ncc2c(N[C@H]3CC[C@@H](C(N)=O)CC3)c(C(=O)N[C@H](C)c3ccc(C)cc3)cnc21 [Example 353, 4-{[cis-4-(aminocarbonyl)cyclohexyl]amino}-1-ethyl-N-[(1R)-1-(4-methylphenyl)ethyl]-1H-pyrazolo[3,4-b]pyridine-5-carboxamide] | 0.501 to 3.16 |
| CCC(NC(=O)c1cnc2c(cnn2CC)c1NC1CCC(=NO)CC1)c1ccc(C)c(C)c1 (stereo not drawn) [Example 261, N-[1-(3,4-dimethylphenyl)propyl]-1-ethyl-4-{[4-(hydroxyimino)cyclohexyl]amino}-1H-pyrazolo[3,4-b]pyridine-5-carboxamide] | 0.1 to 2 |
| CCC(NC(=O)c1cnc2c(cnn2CC)c1NC1CCC(=O)CC1)c1ccc(C)cc1C (stereo not drawn) [Example 210, N-[1-(2,4-dimethylphenyl)propyl]-1-ethyl-4-[(4-oxocyclohexyl)amino]-1H-pyrazolo[3,4-b]pyridine-5-carboxamide] | 0.1 to 2 |
| CCn1ncc2c(NC3CCOCC3)c(C(=O)N[C@H](C)c3ccc(Br)cc3)cnc21 [Example 75, N-[(1R)-1-(4-bromophenyl)ethyl]-1-ethyl-4-(tetrahydro-2H-pyran-4-ylamino)-1H-pyrazolo[3,4-b]pyridine-5-carboxamide] | 0.794 to 5.01 |
| CCn1ncc2c(NC3CCC(C(N)=O)CC3)c(C(=O)NC(C)c3ccc(Cl)cc3)cnc21 (mixture of isomers) [Example 349, 4-{[4-(aminocarbonyl)cyclohexyl]amino}-N-[1-(4-chlorophenyl)ethyl]-1-ethyl-1H-pyrazolo[3,4-b]pyridine-5-carboxamide] | 0.501 to 3.16 |
| CCn1ncc2c(NC3CCCC(O)C3)c(C(=O)N[C@H](C)c3ccc(C)cc3)cnc21 (single isomer, unassigned; diastereoisomer 2) [Example 306] | 0.1 to 2 |
| CCC(NC(=O)c1cnc2c(cnn2CC)c1NC1CCC(=O)CC1)c1ccc(Br)cc1 (stereo not drawn) [Example 218, N-[1-(4-bromophenyl)propyl]-1-ethyl-4-[(4-oxocyclohexyl)amino]-1H-pyrazolo[3,4-b]pyridine-5-carboxamide] | 0.1 to 2 |
| CC[C@@H](NC(=O)c1cnc2c(cnn2CC)c1N[C@H]1CC[C@H](C(N)=O)CC1)c1ccc(C)cc1C [Example 356, 4-{[trans-4-(aminocarbonyl)cyclohexyl]amino}-N-[(1R)-1-(2,4-dimethylphenyl)propyl]-1-ethyl-1H-pyrazolo[3,4-b]pyridine-5-carboxamide] | 39.8 to 158 |
| CCn1ncc2c(NC3CCOCC3)c(C(=O)N[C@@H](C)c3cccc4ccccc34)cnc21 [Example 38, 1-ethyl-N-[(1S)-1-(1-naphthalenyl)ethyl]-4-(tetrahydro-2H-pyran-4-ylamino)-1H-pyrazolo[3,4-b]pyridine-5-carboxamide] | 12.6 to 25.1 |
| CCn1ncc2c(NC3CCOCC3)c(C(=O)N[C@@H](C)c3ccccc3)cnc21 [Example 7, 1-ethyl-N-[(1S)-1-phenylethyl]-4-(tetrahydro-2H-pyran-4-ylamino)-1H-pyrazolo[3,4-b]pyridine-5-carboxamide] | 31.6 to 70.8 |
| CCC(NC(=O)c1cnc2c(cnn2CC)c1NC1CCC(C(N)=O)CC1)c1ccc(Cl)cc1 (mixture of isomers) [Example 346, 4-{[4-(aminocarbonyl)cyclohexyl]amino}-N-[1-(4-chlorophenyl)propyl]-1-ethyl-1H-pyrazolo[3,4-b]pyridine-5-carboxamide] | 0.501 to 3.16 |
| CCn1ncc2c(N[C@H]3CC[C@@H](C(N)=O)CC3)c(C(=O)N[C@H](C)c3ccc(Br)cc3)cnc21 [Example 355, 4-{[cis-4-(aminocarbonyl)cyclohexyl]amino}-N-[(1R)-1-(4-bromophenyl)ethyl]-1-ethyl-1H-pyrazolo[3,4-b]pyridine-5-carboxamide] | 0.501 to 3.16 |
| CC[C@@H](NC(=O)c1cnc2c(cnn2CC)c1NC1CCOCC1)c1ccccc1 [Example 1, 1-ethyl-N-[(1R)-1-phenylpropyl]-4-(tetrahydro-2H-pyran-4-ylamino)-1H-pyrazolo[3,4-b]pyridine-5-carboxamide] | 0.794 to 5.01 |
| CCn1ncc2c(NC3CCC(C(N)=O)CC3)c(C(=O)NC(C)c3ccc(OC(F)F)cc3)cnc21 (mixture of isomers) [Example 348, 4-{[4-(aminocarbonyl)cyclohexyl]amino}-N-(1-{4-[(difluoromethyl)oxy]phenyl}ethyl)-1-ethyl-1H-pyrazolo[3,4-b]pyridine-5-carboxamide] | 0.501 to 3.16 |
| CCn1ncc2c(NC3CCOCC3)c(C(=O)NC(C)c3ccc(Br)cc3)cnc21 (stereo not drawn) [Example 50, N-[1-(4-bromophenyl)ethyl]-1-ethyl-4-(tetrahydro-2H-pyran-4-ylamino)-1H-pyrazolo[3,4-b]pyridine-5-carboxamide] | 0.794 to 5.01 |
| CC[C@@H](NC(=O)c1cnc2c(cnn2CC)c1NC1CCC(C(N)=O)CC1)c1ccccc1 (mixture of isomers) [Example 347, 4-{[4-(aminocarbonyl)cyclohexyl]amino}-1-ethyl-N-[(1R)-1-phenylpropyl]-1H-pyrazolo[3,4-b]pyridine-5-carboxamide] | 0.501 to 3.16 |
